The source of these data is patent publication US10689394B2, “Thieno[2,3-b]pyridine derivative, quinoline derivative, and use thereof” (The University of Tokyo, priority 2016, dated 2020).

Assay [1] relates to binding between 122 types of ALS-related mutant SOD1s and Derlin-1. Kind of assay: Cell-based co-immunoprecipitation with 122 types of ALS-related mutant SOD1s. The arrangement: species or system human. The conditions noted are these: co-immunoprecipitation at cell level, FIG. 2 to FIG. 9. On the procedure:
(§1) Transfection into the HEK293A cells was carried out using PEI-Max (Polyscience) at a ratio of 3 μL of PEI-Max to 1 μg of plasmid. DMEM was mixed with PEI-Max, and the mixture was then left at rest for 5 minutes. Thereafter, the reaction mixture was added to the plasmid DNA dissolved in DMEM, and the thus obtained mixture was further left at rest for 15 minutes. After seeding, the culture was carried out for 12 to 24 hours, and the resultant was then added to a culture medium of cells, in which the medium had been exchanged with DMEM supplemented only with 10% FBS.
(§2) pcDNA3.0-Derlin-1-HA, pcDNA3.0-Flag-SOD1 G93A, and 123 types of other mutants.
After the transfection on a 24-well plate, the cells were cultured for 12 hours or 24 hours, and the obtained cell culture was exchanged with 200 μL of medium. Thereafter, 1% DMSO or various types of compounds having each different concentration were added into the culture. Thirty-six hours or twenty-four hours later, the cells were incubated in the IP lysis buffer (300 μL/well) at 4° C. for 25 minutes, so that the cells were lysed. The cell lysate was centrifuged at 4° C. at 15000 rpm for 10 minutes, and a supernatant was then recovered. To this supernatant, Anti-Flag M2 affinity gel was added in a liquid amount of 20 μL, and they were allowed to react with each other by subjecting the obtained mixture to inversion mixing at 4° C. for 25 minutes. […]

Assay [2] addresses T1, binding between ALS-related mutant SOD1 (Flag-SOD1 G93A) and Derlin-1 (Derlin-1-HA) (Homo sapiens, UniProt P00441+Q9BUN8, G94A).
T1 construct: expressed in transfected cells; host or cells: HEK293A
The experiment in a line: Cell-based co-immunoprecipitation assay of mutant SOD1 (G93A)-Derlin-1 binding. The arrangement: key to Activity value (score): a compound exhibiting no inhibitory activity is set at 0; a compound exhibiting inhibitory activity is set at 1; a compound exhibiting significant inhibitory activity is set at 2; a compound having higher inhibitory activity than the compound of Example 1 is set at 3. Here is the method:
As cells, human embryonic kidney-derived, Human Embryonic Kidney 293A (HEK293A) cells were used. The cells were cultured in High Glucose Dulbecco's modified Eagle's medium (DMEM: 4.5 mg/ml glucose, Sigma) supplemented with complement-inactivated 10% fetal bovine serum (FBS, Vitromex) and 100 units/mL Penicillin G (Meiji), which was placed in an incubator set at conditions of 37° C. and 5% CO2.
as §1, §2
In the lysis of HEK293A cells for use in a co-immunoprecipitation experiment, an IP lysis buffer (20 mM Tris-HCl (pH 7.5), 150 mM NaCl, 10 mM EDTA (pH 8.0), 1% Triton-X 100, 5 μg/mL leupeptin, and 1 mM phenylmethylsulfonyl fluoride) was used.
After the transfection on a 24-well plate, the cells were cultured for 12 hours or 24 hours, and the obtained cell culture was exchanged with 200 μL of medium. Thereafter, 1% DMSO or various types of compounds having each different concentration were added into the culture. Thirty-six hours or twenty-four hours later, the cells were incubated in the IP lysis buffer (300 μL/well) at 4° C. for 25 minutes, so that the cells were lysed. The cell lysate was centrifuged at 4° C. at 15000 rpm for 10 minutes, and a supernatant was then recovered. To this supernatant, Anti-Flag M2 affinity gel was added in a liquid amount of 20 μL, and they were allowed to react with each other by subjecting the obtained mixture to inversion mixing at 4° C. for 25 minutes. After completion of the reaction, a supernatant was removed, and the residue was washed twice with High salt wash buffer (1% Triton X 100, 500 mM NaCl, 20 mM Tris-HCl (pH 7.5), and 5 mM EGTA), and was then washed once with Low salt wash buffer (150 mM NaCl, 20 mM Tris-HCl (pH 7.5), and 5 mM EGTA). Finally, 50 μL of a 2×SDS sample buffer was added to the resultant, and the obtained mixture was then boiled at 98° C. for 3 minutes to obtain an SDS-PAGE sample. Regarding the lysate, a 2×SDS sample buffer was added in an amount equal to the supernatant, and the obtained mixture was then boiled at 98° C. for 3 minutes to obtain an SDS-PAGE sample.
After completion of SDS-PAGE, a protein was transferred from the gel into a polyvinylidene difluoride membrane (PVDF) ([…], Pall), and was then blocked with TBS-T (150 mM NaCl, 50 mM Tris-HCl (pH 8.0), and 0.05% Tween 20) supplemented with 5% skimmed milk at room temperature for 2 hours or more. Thereafter, a primary antibody diluted with TBS-T supplemented with 5% bovine serum albumin and 0.1% NaN3 was allowed to bind to each molecule on the PVDF membrane at 4° C. for 12 hours or more. After completion of the reaction, a secondary antibody (HRP-linked 2nd antibody) diluted with TBS-T supplemented with 5% skimmed milk was allowed to bind to the primary antibody at room temperature for 1 hour. Thereafter, the resultant was washed with TBS-T for 15 minutes, 3 or more times, and detection was then carried out using an enhanced chemiluminescence (ECL) system.
With regard to the compounds of the present invention (Example Compound 1 to Example Compound 47), whether or not the present compound can inhibit the binding between ALS-related mutant SOD1 and Derlin-1 in a cell by being added into a cell culture solution was examined according to a co-immunoprecipitation experiment. […]

T1 sequence (P00441 whole entry G94A, species assumed): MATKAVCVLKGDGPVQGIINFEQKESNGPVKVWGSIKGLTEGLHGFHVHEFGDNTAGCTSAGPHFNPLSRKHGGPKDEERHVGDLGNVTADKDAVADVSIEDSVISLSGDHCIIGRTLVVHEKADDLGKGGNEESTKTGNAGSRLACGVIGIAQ
T1 sequence (Q9BUN8 whole entry, species assumed, stated change not applied): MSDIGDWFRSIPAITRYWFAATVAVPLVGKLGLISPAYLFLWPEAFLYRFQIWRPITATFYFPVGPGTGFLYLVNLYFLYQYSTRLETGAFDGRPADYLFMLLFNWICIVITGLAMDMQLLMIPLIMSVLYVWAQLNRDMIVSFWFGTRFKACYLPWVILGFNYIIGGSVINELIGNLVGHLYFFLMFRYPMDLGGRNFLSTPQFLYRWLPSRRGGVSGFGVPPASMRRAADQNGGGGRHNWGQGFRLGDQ

Take `C=CCN(C(=O)c1sc2nc(-c3cccnc3)ccc2c1N)c1ccccc1` [Example 1, N-allyl-3-amino-N-phenyl-6-(3-pyridinyl)thieno[2,3-b]pyridine-2-carboxamide]: the “inhibition of binding between multiple types of mutant SOD1s and Derlin-1” value in assay [1] is “inhibits the binding between all of the mutant SOD s and Derlin-1”. Further, the “binding between mutant SOD1 and Derlin-1 (co-precipitated Derlin-1, IB:HA band)” value in assay [2] (5 μM, 10 μM and 20 μM added to HEK293A cell culture, FIG. 1) is “the binding between mutant SOD1 and Derlin-1 was inhibited”. Besides, the “Activity value (score)” value in assay [2] (assay concentration 20 μM, HEK293A cells overexpressing Flag-SOD1 G93A and Derlin-1-HA) turned out to be 2.
